In patent US20220184003A1, “Formulations of Cannabidiol Derivatives and Their Use as Modulators of Cannabinoid Receptor Type 2 (CB2)” (EMERALD HEALTH PHARMACEUTICALS INC, priority 2019, published 2022):

Assay: Log D determination (octanol / phosphate buffer pH 7.4)
Settings: octanol / 0.1 M phosphate buffer pH 7.4, pH 7.4
Text: Lipophilicity is a key determinant of the PK behavior of drugs. It can influence distribution into tissues, absorption and the binding characteristics of a drug, as well as being an important factor in determining the solubility of a compound. Log D (distribution co-efficient) is used as a measure of lipophilicity.
The solution was transferred to tubes, centrifuged and the supernatant is drawn off the top, leaving any solid compound in the bottom. This supernatant was then syringe filtered through 0.2 μm filters to produce the initial solution. Three vials were prepared containing values. […] The vials were mixed to equilibrium, then centrifuged to ensure the two phases were fully separated before the octanol was removed and the buffer samples analyzed. For the quantitative analysis, the aqueous solutions were analyzed by LC MS/MS. The amount of VCE-004.8 in each vial was quantified against a 6 points standard curve which was produced by serially diluting the initial solution. Log D was calculated using the equation, shown in FIG. 7, wherein ConcINITlAL is a concentration of compound in the initial aqueous solution, ConcFINAL is a concentration of compound in final aqueous phase, Vaq is a volume of aqueous phase, and Voct is a volume of octanol phase.

C=C(C)[C@@H]1CCC(C)=C[C@H]1c1c(O)cc(CCCCC)cc1O [CBD, cannabidiol]
logD: 5.44
